IC50 data for five compounds are collected here from ChEMBL document CHEMBL1151301, “Isolation of translactone-containing triterpenes with thrombin inhibitory activities from the leaves of Lantana camara” (J Nat Prod, 1998).

This assay addresses Prothrombin (Homo sapiens, UniProt P00734). Briefly: Inhibition of human thrombin by fibrinogen-clot assay.
Take `CC(=O)OC[C@]12C[C@@H]3OC(=O)[C@H](CC(=O)C=C(C)C)[C@H]3[C@]1(C)[C@@H](O)C[C@H]1C2=CC[C@@H]2[C@]1(C)CC[C@@H](OC(C)=O)[C@@]2(C)C(=O)O[C@@H]1O[C@H](CO)[C@@H](O)[C@H](O)[C@H]1O`: half-maximal inhibition (IC50) required 70 nM. That is a double-digit nanomolar value.

`CC(C)=CC(=O)C[C@H]1C(=O)O[C@H]2C[C@]3(C)C4=CC[C@@H]5[C@](C)(CC[C@H]6OC(=O)[C@@]56C)[C@H]4CC[C@@]3(C)[C@@H]21`: the 50% inhibitory concentration (IC50) (commonly the concentration that inhibits the measured activity by half) turned out to be 50 nM.

For `CC(=O)O[C@@H]1CC[C@@]2(C)[C@@H](CC=C3[C@@H]2C[C@H](O)[C@@]2(C)[C@H]4[C@H](C[C@]32C)OC(=O)[C@@H]4CC(=O)C=C(C)C)[C@]1(C)C(=O)O`, the IC50 stood at 90 nM.

`CC(=O)O[C@@H]1CC[C@@]2(C)[C@@H](CC=C3[C@@H]2CC[C@@]2(C)[C@H]4[C@H](C[C@]32C)OC(=O)[C@@H]4CC(=O)C=C(C)C)[C@]1(C)C(=O)O` showed an IC50 of 18 nM.

As to `CC(=O)O[C@@H]1CC[C@@]2(C)[C@@H](CC=C3[C@@H]2C[C@H](O)[C@@]2(C)[C@H]4[C@H](C[C@]32CO)OC(=O)[C@@H]4CC(=O)C=C(C)C)[C@]1(C)C(=O)O[C@@H]1O[C@H](CO)[C@@H](O)[C@H](O)[C@H]1O`, 130 nM corresponded to half-maximal inhibition (IC50).
